pIC50: −log10 of the molar value. Like-named read-outs stand apart in the source and are kept apart here. Square brackets hold non-standard residues; d marks the D form. Peptide text beside a SMILES is read from it. NMeThr(4R-Me,4-(CH2)6NHAc) = CN[C@H](C(=O)O)[C@H](O)[C@H](C)CCCCCCNC(C)=O; NMeL = CN[C@@H](CC(C)C)C(=O)O; NMeV = CN[C@H](C(=O)O)C(C)C; dNMeA = CN[C@H](C)C(=O)O; Abu = CC[C@H](N)C(=O)O
Legend:
OAT1 = OAT1 (Homo sapiens, UniProt Q4U2R8); assay: Drug transporter inhibition, OAT1; details: OAT1, HEK293
Chain of OAT1 (Q4U2R8 whole entry): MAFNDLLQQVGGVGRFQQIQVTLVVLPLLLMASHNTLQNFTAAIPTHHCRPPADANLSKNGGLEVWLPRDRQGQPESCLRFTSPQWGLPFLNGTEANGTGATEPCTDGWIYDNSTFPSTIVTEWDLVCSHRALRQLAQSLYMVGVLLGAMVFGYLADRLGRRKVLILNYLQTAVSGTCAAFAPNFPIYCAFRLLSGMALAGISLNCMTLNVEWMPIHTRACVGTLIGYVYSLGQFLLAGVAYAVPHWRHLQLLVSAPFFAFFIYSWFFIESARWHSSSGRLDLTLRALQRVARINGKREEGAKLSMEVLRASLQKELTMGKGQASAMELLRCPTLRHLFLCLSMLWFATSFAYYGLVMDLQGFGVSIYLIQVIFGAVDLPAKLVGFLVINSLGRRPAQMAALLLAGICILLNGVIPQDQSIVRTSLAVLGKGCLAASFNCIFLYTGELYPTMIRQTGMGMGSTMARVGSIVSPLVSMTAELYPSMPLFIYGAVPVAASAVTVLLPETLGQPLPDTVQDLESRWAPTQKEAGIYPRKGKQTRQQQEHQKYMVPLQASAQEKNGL
Method: (§2) Bile salt export pump (BSEP) and multidrug resistance protein (MRP)1 inhibition was assessed by measuring substrate accumulation in membrane vesicles prepared from insect Sf9 cells and recombinantly expressing BSEP and MRP2 (Genomembrane). Inhibition of all other transporters was assessed by measuring substrate accumulation in cells recombinantly expressing the transporter. Known inhibitors of each transporter were used as positive controls for the assays. […] Specific, ATP-dependent uptake was determined by subtracting uptake in negative control vesicles and cells not expressing the transporters, and secondly by subtracting uptake in the absence of ATP in the assays. Specific, ATP-dependent uptake was plotted as a function of CRV431 concentrations and fitted to nonlinear regressions to obtain IC50 values.

MATE-1 = target: T1, MATE-1 (Homo sapiens, UniProt Q96FL8); assay: Drug transporter inhibition, MATE-1; format: in vitro ADME; details: MATE-1, HEK293
T1 construct: expressed in transfected cells
T1 sequence (Q96FL8 whole entry): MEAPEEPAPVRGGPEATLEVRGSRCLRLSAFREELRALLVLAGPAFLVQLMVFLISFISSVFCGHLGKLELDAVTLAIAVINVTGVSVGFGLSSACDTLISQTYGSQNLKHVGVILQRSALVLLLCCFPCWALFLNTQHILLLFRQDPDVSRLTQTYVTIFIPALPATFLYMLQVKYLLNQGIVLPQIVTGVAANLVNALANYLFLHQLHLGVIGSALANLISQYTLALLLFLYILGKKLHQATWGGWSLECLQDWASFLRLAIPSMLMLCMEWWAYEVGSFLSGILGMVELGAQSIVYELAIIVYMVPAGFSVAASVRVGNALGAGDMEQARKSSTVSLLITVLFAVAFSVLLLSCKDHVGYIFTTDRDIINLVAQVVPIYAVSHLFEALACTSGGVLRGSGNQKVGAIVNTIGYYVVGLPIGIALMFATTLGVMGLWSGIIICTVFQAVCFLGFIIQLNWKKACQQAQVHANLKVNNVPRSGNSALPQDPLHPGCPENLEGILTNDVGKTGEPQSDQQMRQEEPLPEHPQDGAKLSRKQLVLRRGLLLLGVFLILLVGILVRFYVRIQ
Method: (§3) Inhibition of all other transporters was assessed by measuring substrate accumulation in cells recombinantly expressing the transporter. Known inhibitors of each transporter were used as positive controls for the assays. […] Specific, ATP-dependent uptake was determined by subtracting uptake in negative control vesicles and cells not expressing the transporters, and secondly by subtracting uptake in the absence of ATP in the assays. Specific, ATP-dependent uptake was plotted as a function of CRV431 concentrations and fitted to nonlinear regressions to obtain IC50 values.

[1] = test system: CCl4-induced liver fibrosis in C57BL/6 mice; assay: Carbon tetrachloride mouse model of liver fibrosis; format: in vivo; details: 50 mg/kg per day oral for 6 weeks, vs vehicle
Method: Carbon tetrachloride (CCl4)–induced liver fibrosis was conducted in C57BL/6J male mice starting at 7 weeks of age. Mice were injected intraperitoneally twice per week with 0.5–0.75 ml/kg CCL4 (289116; Sigma-Aldrich) and corn oil (0.05 ml total dose per mouse) for 6 weeks. CRV431, obeticholic acid (OCA, HY-12222; MedChemExpress), and vehicle were administered by daily oral gavage for the entire duration of the study. CRV431 and OCA were dissolved in a self-microemulsifying drug vehicle ([Trepanier et al., 2018]), and then diluted with PBS. CRV431 was administered at 50 mg/kg per day, and OCA was administered at 10 mg/kg per day.
Blood and livers were collected at the end of the NASH and CCl4 studies. In some studies, serum or plasma was isolated from freshly-collected blood, whereas in other studies blood was frozen for later analysis of CRV431 concentration. Livers were immersion-fixed in zinc-formalin and paraffin-embedded for histologic processing. Liver sections were stained with hematoxylin and eosin for assessment of inflammation, ballooning, and steatosis, and with sirius red for assessment of collagen I and III (fibrosis). Sirius red staining was quantified by blinded analysis in one section per liver using ImageJ software. […]

[2] = test system: human peripheral blood mononuclear cells; assay: CFSE-PBMC proliferation; format: cell-based; details: highest tested concentration of 10 µM, 3 days
Method: Peripheral blood mononuclear cells (PBMC) were isolated by Ficoll Paque Plus centrifugation (17144003; GE Life Sciences) of venous blood from a healthy human volunteer. Cells were incubated for 5 minutes with 5 µg/ml carboxyfluorescein diacetate succinimidyl ester (C1157; Thermo Fisher) to produce stable intracellular carboxyfluorescein succinimidyl ester (CFSE) labeling (CFSE-PBMC). […] Cells were collected after 3 days of culture incubation, and flow cytometry was used to measure the partitioning of CFSE into daughter cells arising from cell division (discrete cell populations with successively halved CFSE content). Daughter cells as a percentage of all CFSE-labeled cells were normalized to DMSO treatment (100% stimulation) and wells without CD3 antibody coating (nonstimulated).

[3] = test system: Jurkat activation (NFAT and IL-2 luciferase reporters); assay: Jurkat NFAT and IL-2 luciferase reporter assays taken together; format: cell-based, human
Method: (§1) The luciferase reporter assays employed Jurkat cells stably transfected with gene constructs consisting of a luciferase gene plus human nuclear factor of activated T cells (NFAT) or interleukin-2 (IL-2) promoter elements (J1621 and J1651; Promega). The NFAT construct contained a DNA binding site only for NFAT, whereas the IL-2 construct contained binding sites for NFAT, nuclear factor κ-light-chain-enhancer of activated B cells, and activating protein-1 transcription factors. Cells were cultured in 96-well plates at 100,000 cells/well in RPMI 1640 medium (11875-093; Thermo Fisher) supplemented with 5% FBS (12483020; Thermo Fisher). Cells were activated either by precoating high protein-binding plates with 3 µg/ml anti-CD3 (UCHT clone) and anti-CD28 (CD28.2 clone) (BioLegend LEAF antibodies) or by adding phorbol myristate acetate (PMA; P8139; Sigma-Aldrich) to 15 ng/ml and A23187 ionophore (C7522; Sigma-Aldrich) to 0.75 µM. […] Cells were harvested after 18 hours of incubation, and luciferase was quantified with Promega Bio-Glo reagent (G7940; Promega) and measurement with a luminescence plate reader. Data were normalized to DMSO controls (100% stimulation) and to wells without antibody or PMA plus A23187 stimulation.

MATE-2 = target: T2, MATE-2 (Homo sapiens, UniProt Q86VL8); assay: Drug transporter inhibition, MATE-2; format: in vitro ADME; details: MATE-2, HEK293
T2 construct: expressed in transfected cells
T2 sequence (Q86VL8 whole entry): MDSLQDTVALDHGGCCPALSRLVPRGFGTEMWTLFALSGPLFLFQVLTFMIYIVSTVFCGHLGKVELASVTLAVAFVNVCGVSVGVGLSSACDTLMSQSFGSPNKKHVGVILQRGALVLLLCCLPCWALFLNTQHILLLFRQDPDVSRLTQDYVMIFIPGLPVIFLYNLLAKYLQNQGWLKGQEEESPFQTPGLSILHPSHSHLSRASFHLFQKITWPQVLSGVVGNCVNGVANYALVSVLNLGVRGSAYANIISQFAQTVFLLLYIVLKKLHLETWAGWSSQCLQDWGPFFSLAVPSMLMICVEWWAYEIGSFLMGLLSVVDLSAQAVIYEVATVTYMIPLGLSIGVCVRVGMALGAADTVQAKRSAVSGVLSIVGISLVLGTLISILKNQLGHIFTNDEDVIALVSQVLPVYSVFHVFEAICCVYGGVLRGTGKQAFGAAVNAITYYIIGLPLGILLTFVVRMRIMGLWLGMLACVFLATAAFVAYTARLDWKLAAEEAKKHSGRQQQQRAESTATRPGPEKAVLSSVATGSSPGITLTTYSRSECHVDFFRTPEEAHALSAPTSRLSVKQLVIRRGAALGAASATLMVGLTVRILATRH
Method: as §3

OAT3 = OAT3 (Homo sapiens, UniProt Q8TCC7); assay: Drug transporter inhibition, OAT3; details: OAT3, HEK293
Chain of OAT3 (Q8TCC7 whole entry): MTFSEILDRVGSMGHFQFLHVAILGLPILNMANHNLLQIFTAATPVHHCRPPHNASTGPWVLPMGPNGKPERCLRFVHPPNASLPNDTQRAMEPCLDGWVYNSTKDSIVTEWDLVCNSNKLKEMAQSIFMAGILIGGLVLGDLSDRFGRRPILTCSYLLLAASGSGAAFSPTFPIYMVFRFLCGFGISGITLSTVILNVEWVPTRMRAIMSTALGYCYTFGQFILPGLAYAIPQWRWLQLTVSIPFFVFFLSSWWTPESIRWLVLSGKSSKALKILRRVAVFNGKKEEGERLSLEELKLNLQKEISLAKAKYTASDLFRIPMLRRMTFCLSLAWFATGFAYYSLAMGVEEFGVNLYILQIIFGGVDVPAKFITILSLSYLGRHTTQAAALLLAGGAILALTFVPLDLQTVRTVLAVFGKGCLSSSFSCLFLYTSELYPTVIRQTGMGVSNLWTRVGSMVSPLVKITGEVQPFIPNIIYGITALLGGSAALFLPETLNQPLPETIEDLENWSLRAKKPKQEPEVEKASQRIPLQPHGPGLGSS
Method: as §2

[4] = CRV431 blood and liver exposures across mouse and rat studies; details: daily oral dosing, mice and rats
Text: (§4) Male and female Sprague–Dawley rats and male C57BL/6 mice from the carbon tetrachloride and NASH studies were used to evaluate CRV431 pharmacokinetics and distribution. […] Terminal whole blood and livers were collected and frozen until drug extraction. Liver samples were homogenized in PBS or 1% formic acid (0.1 g–0.4 g liver sample per ml solvent) with bead-based homogenizers (TissueLyser or Beadruptor). […] Liver CRV431 concentrations were normalized to the masses of the liver samples.

[5] = test system: NFAT promoter luciferase reporter, Jurkat cells; assay: NFAT luciferase reporter assay in Jurkat cells; format: cell-based, human; details: for pIC50: 18 hours, read-out: NFAT–Luc IC50; for NFAT–Luc IC50 Fold Difference: CRV431 vs CsA
Method: as §1

[6] = rat, in vivo, po
Text: Male and female Sprague–Dawley rats and male C57BL/6 mice from the carbon tetrachloride and NASH studies were used to evaluate CRV431 pharmacokinetics and distribution. […] Terminal whole blood and livers were collected and frozen until drug extraction. Liver samples were homogenized in PBS or 1% formic acid (0.1 g–0.4 g liver sample per ml solvent) with bead-based homogenizers (TissueLyser or Beadruptor). […] Sample and standard compounds were extracted from blood and liver homogenates using a zinc sulfate/methanol precipitation method and quantified by liquid chromatography–electrospray ionization–mass spectrometry, as previously described ([Trepanier et al., 2018]). Liver CRV431 concentrations were normalized to the masses of the liver samples.
CRV431 pharmacokinetics in rats. […] Whole–blood concentrations of the two compounds were determined at the indicated time points. […] Means and S.D. shown.

[7] = CRV431 concentrations in blood and liver, rats; format: in vivo; details: Rat
Text: as §4

BCRP = BCRP (Homo sapiens, UniProt Q9UNQ0)
Chain of BCRP (Q9UNQ0 whole entry): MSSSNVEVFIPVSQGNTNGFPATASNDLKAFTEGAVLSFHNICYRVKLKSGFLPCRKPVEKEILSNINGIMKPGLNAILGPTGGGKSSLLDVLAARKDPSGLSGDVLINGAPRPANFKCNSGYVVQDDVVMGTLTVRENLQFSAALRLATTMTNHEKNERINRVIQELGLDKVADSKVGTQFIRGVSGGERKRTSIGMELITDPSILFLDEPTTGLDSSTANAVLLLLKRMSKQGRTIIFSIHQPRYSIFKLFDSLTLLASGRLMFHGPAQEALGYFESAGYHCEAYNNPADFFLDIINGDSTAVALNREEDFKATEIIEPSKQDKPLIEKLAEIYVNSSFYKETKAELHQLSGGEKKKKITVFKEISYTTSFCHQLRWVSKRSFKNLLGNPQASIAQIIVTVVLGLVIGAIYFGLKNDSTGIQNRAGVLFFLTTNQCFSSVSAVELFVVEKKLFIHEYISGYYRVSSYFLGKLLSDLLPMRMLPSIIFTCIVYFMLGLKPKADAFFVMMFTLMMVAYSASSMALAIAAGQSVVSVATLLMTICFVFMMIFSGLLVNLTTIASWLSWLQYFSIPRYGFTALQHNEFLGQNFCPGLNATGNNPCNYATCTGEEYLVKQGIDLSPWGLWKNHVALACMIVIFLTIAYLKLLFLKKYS
Method: Briefly, PGP and breast cancer resistance protein inhibition was assessed by measuring the bidirectional transport of substrates across cell monolayers in transwell culture plates. Efflux ratios were represented as (apical-to-basal flux)/(basal-to-apical flux), and efflux ratios were plotted relative to CRV431 concentration to derive IC50 values. Bile salt export pump (BSEP) and multidrug resistance protein (MRP)1 inhibition was assessed by measuring substrate accumulation in membrane vesicles prepared from insect Sf9 cells and recombinantly expressing BSEP and MRP2 (Genomembrane). Inhibition of all other transporters was assessed by measuring substrate accumulation in cells recombinantly expressing the transporter. Known inhibitors of each transporter were used as positive controls for the assays. […] Specific, ATP-dependent uptake was determined by subtracting uptake in negative control vesicles and cells not expressing the transporters, and secondly by subtracting uptake in the absence of ATP in the assays. Specific, ATP-dependent uptake was plotted as a function of CRV431 concentrations and fitted to nonlinear regressions to obtain IC50 values.

CC[C@@H]1NC(=O)[C@H]([C@H](O)[C@H](C)CCCCCCNC(C)=O)N(C)C(=O)[C@H](C(C)C)N(C)C(=O)[C@H](CC(C)C)N(C)C(=O)[C@H](CC(C)C)N(C)C(=O)[C@@H](C)NC(=O)[C@H](C)NC(=O)[C@H](CC(C)C)N(C)C(=O)[C@H](C(C)C)NC(=O)[C@H](CC(C)C)N(C)C(=O)[C@@H](C)N(C)C1=O [CRV431] (cyclo(A[dA][NMeL][NMeL][NMeV][NMeThr(4R-Me,4-(CH2)6NHAc)][Abu][dNMeA][NMeL]V[NMeL]))
CRV431 Inhibitory Potency vs. CsA (OAT1): Same (no inhibition)
pIC50 (OAT1): < 4.30
CRV431 Inhibitory Potency vs. CsA (MATE-1): Same (no inhibition)
lowering of the amount of sirius red staining [1]: 43%
inhibition of proliferation [2]: 40%
suppression of Jurkat activation ([3]; CRV431 tested up to 20 µM): not able to completely suppress activation
immunosuppression potency relative to CsA levels ([3]; from the multiple in vitro immunosuppression assays): ≤ 3%
pIC50 ([3]; range over both reporter lines and both stimulations, nonlinear regression, read-out: IC50 values, Jurkat activation): 6.51 to 6.69
pIC50 ([3]; read-out: estimates of 50% inhibition derived directly from the graphs, range over Jurkat reporter assays): 6.30 to 6.47
CRV431 Inhibitory Potency vs. CsA (MATE-2): Same (no inhibition)
CRV431 Inhibitory Potency vs. CsA (OAT3): >21× more
pIC50 (OAT3): 6.33
fold higher levels in liver than in the blood [4]: 5- to 15 fold
pIC50 ([5]; CD3 + CD28 antibodies stimulation): 6.53
NFAT–Luc IC50 Fold Difference ([5]; CD3 + CD28 antibodies): 65.4
NFAT–Luc IC50 Fold Difference ([5]; PMA + A23187): 60.2
pIC50 ([5]; PMA + A23187 stimulation): 6.69
times less potent than CsA on Jurkat–NFAT cells ([5]; ratio of CRV431 and CsA IC50): ~63 times
half-life (in words) [6]: relatively long CRV431 half-life that exceeded that of CsA
Liver:Blood [CRV431] Ratio ([7]; 30 mg/kg per day oral, day 7, 12 hours post-dose): 6.6 ± 1.1
Liver:Blood [CRV431] Ratio ([7]; 30 mg/kg per day oral, day 7, 24 hours post-dose): 4.8 ± 1.1
Liver:Blood [CRV431] Ratio ([7]; 250 mg/kg per day oral, day 7, 12 hours post-dose): 7.6 ± 1.8
Liver:Blood [CRV431] Ratio ([7]; 250 mg/kg per day oral, day 7, 24 hours post-dose): 5.3 ± 0.6
pIC50 (BCRP): 4.64

Reference: PMC6815936, “A Pan-Cyclophilin Inhibitor, CRV431, Decreases Fibrosis and Tumor Development in Chronic Liver Disease Models” (The Journal of Pharmacology and Experimental Therapeutics, 2019)
